According to US20230081390A1, “INHIBITORS OF RAF KINASES” (Kinnate Biopharma Inc., priority 2019, published 2023):

Molecular target: human RAF1 (Homo sapiens, UniProt P04049)
Assay: Protein kinase assay (33P-ATP filter binding), human RAF1, 10-dose IC50
Type: biochemical
Conditions: MEK1 (K97R) substrate 3 micromolar, ATP 10 micromolar, read-out: RAF-1 IC50
Experimental: In brief, for each reaction, kinase and substrate were mixed in a buffer containing 20 mM HEPES (pH 7.5), 10 mM MgCl2, 1 mM EGTA, 0.02% Brij35, 0.02 mg/mL BSA, 0.1 mM Na3VO4, 2 mM DTT, and […]. All compounds were solubilized in DMSO. Compounds were then added to each reaction mixture via acoustic dispense using an ECHO 550 nanoliter dispenser. For human RAF1 testing, human MEK1 (K97R) was used as a substrate at a concentration of 3 micromolar, with a final ATP concentration of 10 micromolar. […] Reactions were carried out at room temperature for 2 hr and spotted onto P81 ion exchange cellulose chromatography paper (Reaction Biology). […] The percent remaining kinase activity relative to a vehicle-containing (DMSO) kinase reaction was calculated for each kinase/inhibitor pair. IC50 values were calculated using Prism 5 (GraphPad).

Sequence of human RAF1 (P04049 whole entry): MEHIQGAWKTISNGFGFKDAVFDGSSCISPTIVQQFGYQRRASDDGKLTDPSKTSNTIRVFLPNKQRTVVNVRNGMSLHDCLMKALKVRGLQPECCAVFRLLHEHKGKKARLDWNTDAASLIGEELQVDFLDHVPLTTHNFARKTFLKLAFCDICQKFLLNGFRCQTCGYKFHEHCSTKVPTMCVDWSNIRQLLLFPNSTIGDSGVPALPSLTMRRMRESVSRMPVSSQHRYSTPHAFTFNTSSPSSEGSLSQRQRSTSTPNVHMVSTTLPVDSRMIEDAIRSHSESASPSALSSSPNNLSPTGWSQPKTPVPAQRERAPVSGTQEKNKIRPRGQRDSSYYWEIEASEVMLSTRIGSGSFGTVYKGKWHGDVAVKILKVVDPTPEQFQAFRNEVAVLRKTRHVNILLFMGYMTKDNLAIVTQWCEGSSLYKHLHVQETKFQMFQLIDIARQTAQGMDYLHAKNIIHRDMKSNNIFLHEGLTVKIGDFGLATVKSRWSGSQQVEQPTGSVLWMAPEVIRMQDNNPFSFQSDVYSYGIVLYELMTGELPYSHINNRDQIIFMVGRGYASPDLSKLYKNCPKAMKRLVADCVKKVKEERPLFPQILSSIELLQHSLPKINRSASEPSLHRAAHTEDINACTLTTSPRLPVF

| SMILES | IC50 [nM] |
| --- | --- |
| Cc1cc(F)c(NC(=O)N2CC[C@H](C3CC3)C2)cc1-c1cc(OCCO)nc(N2CCOCC2)c1 (single isomer, unassigned) [Example 47] | < 10 |
| Cc1cc(F)c(NC(=O)N2CC[C@@H](C3CC3)C2)cc1-c1cc(OCCO)nc(N2CCOCC2)c1 (single isomer, unassigned) [Example 48] | < 10 |
| Cc1cc(F)c(NC(=O)N2C[C@@H]3C[C@]3(C(F)(F)F)C2)cc1-c1cc(OCCO)nc(N2CCOCC2)c1 (single isomer, unassigned) [Example 50] | < 10 |
| Cc1cc(F)c(NC(=O)N2C[C@H]3C[C@@]3(C(F)(F)F)C2)cc1-c1cc(OCCO)nc(N2CCOCC2)c1 (single isomer, unassigned) [Example 51] | < 10 |
| Cc1cc(F)c(NC(=O)N2CC(C)C(C(F)(F)F)C2)cc1-c1cc(OCCO)nc(N2CCOCC2)c1 (single isomer, unassigned) [Example 52, N-[2-fluoro-5-[2-(2-hydroxyethoxy)-6-(morpholin-4-yl)pyridin-4-yl]-4-methylphenyl]-3-methyl-4-(trifluoromethyl)pyrrolidine-1-carboxamide] | < 10 |
| Cc1cc(F)c(NC(=O)N2CC(C)C(C(F)(F)F)C2)cc1-c1cc(OCCO)nc(N2CCOCC2)c1 (single isomer, unassigned) [Example 53, N-[2-fluoro-5-[2-(2-hydroxyethoxy)-6-(morpholin-4-yl)pyridin-4-yl]-4-methylphenyl]-3-methyl-4-(trifluoromethyl)pyrrolidine-1-carboxamide] | < 10 |
| Cc1cc(F)c(NC(=O)N2CCO[C@@H](C(C)(F)F)C2)cc1-c1cc(OCCO)nc(N2CCOCC2)c1 (single isomer, unassigned) [Example 58] | < 10 |
| Cc1cc(F)c(NC(=O)N2CCO[C@@H](C(C)(F)F)C2)cc1-c1cc(OCCO)nc(N2CCOCC2)c1 (single isomer, unassigned) [Example 59] | < 10 |
| Cc1cc(F)c(NC(=O)N2C[C@H](C(F)(F)F)C[C@@H]2C)cc1-c1cc(OCCO)nc(N2CCOCC2)c1 (single isomer, unassigned) [Example 60, (cis)-N-[2-fluoro-5-[2-(2-hydroxyethoxy)-6-(morpholin-4-yl)pyridin-4-yl]-4-methylphenyl]-2-methyl-4-(trifluoromethyl)pyrrolidine-1-carboxamide] | < 10 |
| Cc1cc(F)c(NC(=O)N2C[C@H](C(F)(F)F)C[C@@H]2C)cc1-c1cc(OCCO)nc(N2CCOCC2)c1 (single isomer, unassigned) [Example 61, (cis)-N-[2-fluoro-5-[2-(2-hydroxyethoxy)-6-(morpholin-4-yl)pyridin-4-yl]-4-methylphenyl]-2-methyl-4-(trifluoromethyl)pyrrolidine-1-carboxamide] | < 10 |
| Cc1cc(F)c(NC(=O)N2CC[C@]3(C2)CC3(F)F)cc1-c1cc(OCCO)nc(N2CCOCC2)c1 (single isomer, unassigned) [Example 62] | < 10 |
| Cc1cc(F)c(NC(=O)N2CC[C@@]3(C2)CC3(F)F)cc1-c1cc(OCCO)nc(N2CCOCC2)c1 (single isomer, unassigned) [Example 63] | < 10 |
| Cc1cc(F)c(NC(=O)N2CCC(C(F)(F)F)C2C)cc1-c1cc(OCCO)nc(N2CCOCC2)c1 (single isomer, unassigned) [Example 64, N-[2-fluoro-5-[2-(2-hydroxyethoxy)-6-(morpholin-4-yl)pyridin-4-yl]-4-methylphenyl]-2-methyl-3-(trifluoromethyl)pyrrolidine-1-carboxamide] | 100 to 1000 |
| Cc1cc(F)c(NC(=O)N2CCC(C(F)(F)F)C2C)cc1-c1cc(OCCO)nc(N2CCOCC2)c1 (single isomer, unassigned) [Example 65, N-[2-fluoro-5-[2-(2-hydroxyethoxy)-6-(morpholin-4-yl)pyridin-4-yl]-4-methylphenyl]-2-methyl-3-(trifluoromethyl)pyrrolidine-1-carboxamide] | 10 to 100 |
| Cc1cc(F)c(NC(=O)N2CCC(C(F)(F)F)C2C)cc1-c1cc(OCCO)nc(N2CCOCC2)c1 (single isomer, unassigned) [Example 66, N-[2-fluoro-5-[2-(2-hydroxyethoxy)-6-(morpholin-4-yl)pyridin-4-yl]-4-methylphenyl]-2-methyl-3-(trifluoromethyl)pyrrolidine-1-carboxamide] | < 10 |
| Cc1cc(F)c(NC(=O)N2CCC(C(F)(F)F)C2C)cc1-c1cc(OCCO)nc(N2CCOCC2)c1 (single isomer, unassigned) [Example 67, N-[2-fluoro-5-[2-(2-hydroxyethoxy)-6-(morpholin-4-yl)pyridin-4-yl]-4-methylphenyl]-2-methyl-3-(trifluoromethyl)pyrrolidine-1-carboxamide] | < 10 |
| Cc1cc(F)c(NC(=O)N2CCC3C2C3C(F)(F)F)cc1-c1cc(OCCO)nc(N2CCOCC2)c1 (single isomer, unassigned) [Example 68, N-[2-fluoro-5-[2-(2-hydroxyethoxy)-6-(morpholin-4-yl)pyridin-4-yl]-4-methylphenyl]-6-(trifluoromethyl)-2-azabicyclo[3.1.0]hexane-2-carboxamide] | < 10 |
| Cc1cc(F)c(NC(=O)N2CCC3C2C3C(F)(F)F)cc1-c1cc(OCCO)nc(N2CCOCC2)c1 (single isomer, unassigned) [Example 69, N-[2-fluoro-5-[2-(2-hydroxyethoxy)-6-(morpholin-4-yl)pyridin-4-yl]-4-methylphenyl]-6-(trifluoromethyl)-2-azabicyclo[3.1.0]hexane-2-carboxamide] | < 10 |
| Cc1cc(F)c(NC(=O)N2CCC3C2C3C(F)(F)F)cc1-c1cc(OCCO)nc(N2CCOCC2)c1 (single isomer, unassigned) [Example 70, N-[2-fluoro-5-[2-(2-hydroxyethoxy)-6-(morpholin-4-yl)pyridin-4-yl]-4-methylphenyl]-6-(trifluoromethyl)-2-azabicyclo[3.1.0]hexane-2-carboxamide] | 10 to 100 |
| Cc1cc(F)c(NC(=O)N2CCC3C2C3C(F)(F)F)cc1-c1cc(OCCO)nc(N2CCOCC2)c1 (single isomer, unassigned) [Example 71, N-[2-fluoro-5-[2-(2-hydroxyethoxy)-6-(morpholin-4-yl)pyridin-4-yl]-4-methylphenyl]-6-(trifluoromethyl)-2-azabicyclo[3.1.0]hexane-2-carboxamide] | 100 to 1000 |
| Cc1cc(F)c(NC(=O)N2CC[C@H](CC(F)(F)F)C2)cc1-c1cc(OCCO)nc(N2CCOCC2)c1 (single isomer, unassigned) [Example 74] | < 10 |
| Cc1cc(F)c(NC(=O)N2CC[C@@H](CC(F)(F)F)C2)cc1-c1cc(OCCO)nc(N2CCOCC2)c1 (single isomer, unassigned) [Example 75] | < 10 |
| Cc1cc(F)c(NC(=O)N2CC[C@@H](OC(F)(F)F)C2)cc1-c1cc(OCCO)nc(N2CCOCC2)c1 (single isomer, unassigned) [Example 77] | < 10 |
| Cc1cc(F)c(NC(=O)N2CC[C@H](OC(F)(F)F)C2)cc1-c1cc(OCCO)nc(N2CCOCC2)c1 (single isomer, unassigned) [Example 78] | < 10 |

Further lines, results first:

| IC50 [nM] | SMILES |
| --- | --- |
| < 10 | Cc1cc(F)c(NC(=O)N2C[C@H](CF)[C@@H](C(F)(F)F)C2)cc1-c1cc(OCCO)nc(N2CCOCC2)c1 (relative stereo) [Example 39, (trans)-N-[2-fluoro-5-[2-(2-hydroxyethoxy)-6-(morpholin-4-yl)pyridin-4-yl]-4-methylphenyl]-3-(fluoromethyl)-4-(trifluoromethyl) pyrrolidine-1-carboxamide] |
| < 10 | Cc1ccc(NC(=O)N2CC[C@@H](C(F)(F)F)C2)cc1-c1cnc(OCCO)c(N2CCOCC2)c1 (single isomer, unassigned) [Example 14] |
| < 10 | Cc1ccc(NC(=O)N2CC[C@H](C(F)(F)F)C2)cc1-c1cnc(OCCO)c(N2CCOCC2)c1 (single isomer, unassigned) [Example 15] |
| < 10 | Cc1ncc(NC(=O)N2CC[C@@H](C(F)(F)F)C2)cc1-c1cnc(OCCO)c(N2CCOCC2)c1 (single isomer, unassigned) [Example 16] |
| < 10 | Cc1ncc(NC(=O)N2CC[C@H](C(F)(F)F)C2)cc1-c1cnc(OCCO)c(N2CCOCC2)c1 (single isomer, unassigned) [Example 17] |
| < 10 | Cc1cc(F)c(NC(=O)N2CC[C@@H](C(F)(F)F)C2)cc1-c1cc(OCCO)nc(N2CCOC[C@H]2C)c1 (single isomer, unassigned) [Example 29] |
| < 10 | Cc1cc(F)c(NC(=O)N2CC[C@H](C(F)(F)F)C2)cc1-c1cc(OCCO)nc(N2CCOC[C@H]2C)c1 (single isomer, unassigned) [Example 30] |
| < 10 | Cc1cc(F)c(NC(=O)N2CC[C@@H](C(F)(F)F)C2)cc1-c1cnc(OC2CCOCC2)c(N2CCOCC2)c1 (single isomer, unassigned) [Example 31] |
| < 10 | Cc1cc(F)c(NC(=O)N2CC[C@H](C(F)(F)F)C2)cc1-c1cnc(OC2CCOCC2)c(N2CCOCC2)c1 (single isomer, unassigned) [Example 32] |
| < 10 | Cc1cc(F)c(NC(=O)N2CC[C@H](C(C)(F)F)C2)cc1-c1cc(OCCO)nc(N2CCOCC2)c1 (single isomer, unassigned) [Example 33] |
| < 10 | Cc1cc(F)c(NC(=O)N2CC[C@@H](C(C)(F)F)C2)cc1-c1cc(OCCO)nc(N2CCOCC2)c1 (single isomer, unassigned) [Example 34] |
